For 40 molecules, cytotoxicity results are on record in ChEMBL document CHEMBL3507680, “University of Dundee, Gates Library screen for HepG2 cell viability”.

This data set can be described thus: Human HepG2 cell viability assay in 384 well format. The format is toxicity, cell-based. Details: dose 125 nL, time 70.5 hour; concentration not given beside the values. As to conditions: HepG2 cells, read-out: Inhibition.

For `Cc1ccnc(NC(=O)CCNC(=O)c2ccccc2Cl)c1`, the cytotoxicity at 70.5 h was -1.99%.

For the molecule `CCOC(=O)CNC(=O)c1cccnc1Oc1ccc(Cl)cc1`, the cytotoxicity at 70.5 h is -9.7%.

On to `COC(=O)c1cnc2c(c(C)nn2C)c1OC`, for which the cytotoxicity at 70.5 h was -3.27%.

On to `COc1ccc(CCCN(C)C(=O)c2cc(C(C)=O)c[nH]2)cc1OC`, for which the cytotoxicity at 70.5 h was -8.38%.

In the case of `CNC(=O)NC(=O)C(NCc1cccs1)c1ccccc1` (stereo not given), the cytotoxicity at 70.5 h turned out to be 34.4%.

On to `COc1ccc(CN(C)C(=O)CSc2nnc(N)s2)c(OC)c1OC`, for which the cytotoxicity at 70.5 h was -5.3%.

`CN(CC(=O)NCCc1ccccn1)C(=O)c1cccs1`: the cytotoxicity at 70.5 h is -19.9%.

For the molecule `CC1CCN(S(=O)(=O)N2CCc3sccc3C2)CC1`, the cytotoxicity at 70.5 h is 45%.

For `COc1ccc(C2C3=C(CCCC3=O)Nc3nc(SC)nc(N)c32)cc1` (stereo not given), the cytotoxicity at 70.5 h was 6.58%.

Take `CC(Sc1nc(N)cc(N)n1)c1nc(C(C)(C)C)no1` (stereo not given): the cytotoxicity at 70.5 h was -2.01%.

For `CS(=O)(=O)N1CCN(C(=O)CN2CCCc3c(F)cc(F)cc32)CC1`, the cytotoxicity at 70.5 h was -3.95%.

Consider `COc1ccnc(N2CCN(CC(=O)N3CCOCC3)CC2)n1`, for which the cytotoxicity at 70.5 h was 2.32%.

As to `CC(CNC(=O)Nc1ccc(C#N)cc1)N1CCc2ccccc21` (stereo not given), the cytotoxicity at 70.5 h turned out to be 4.28%.

As for `CCOC(=O)CCC(=O)NC(C)c1ccc(NC(=O)CC)cc1` (stereo not given), the cytotoxicity at 70.5 h is -3.08%.

With `O=C(c1cc(Cl)c(Br)[nH]1)N1CCN(Cc2ccco2)CC1`, the cytotoxicity at 70.5 h is -6.08%.

In the case of `COc1c(Br)cc(Cl)cc1NCc1c(C)noc1C`, the cytotoxicity at 70.5 h worked out at 11.5%.

On to `O=C(NCc1nnc2n1CCC2)c1cn(-c2cccc(Br)c2)nn1`, for which the cytotoxicity at 70.5 h is -6.53%.

Consider `N#Cc1c(F)cccc1N1CCC(NS(=O)(=O)c2cccs2)CC1`, for which the cytotoxicity at 70.5 h was determined as 13.5%.

`CC(C)c1nc(CN2CCN(C(=O)CN3CCOCC3)CC2)no1`: the cytotoxicity at 70.5 h came out at 28.7%.

Take `CN(C)C(CNC(=O)c1nc(N2CCOCC2)ncc1Cl)c1ccco1` (stereo not given): the cytotoxicity at 70.5 h was -19.3%.

On to `CCCS(=O)(=O)NC(C)C(=O)NCc1ccc(N2CCCC2)nc1` (stereo not given), for which the cytotoxicity at 70.5 h is -7.44%.

`O=S(=O)(NCc1cn2ccccc2n1)N1CCOCC1`: the cytotoxicity at 70.5 h is -12.1%.

On to `CN1CCC(NC(=O)NCc2csc(Br)c2)CC1`, for which the cytotoxicity at 70.5 h was -10.7%.

In the case of `CN(C)c1nc(N)nc(CN2CCCC2c2ccsc2)n1` (stereo not given), the cytotoxicity at 70.5 h was -7.29%.

Turning to `COc1ccccc1OCCNc1snc(Cl)c1C#N`, the cytotoxicity at 70.5 h is -15.5%.

As for `O=C(CCNC(=O)c1ccc(Cl)cc1)NCc1nc(C2CC2)no1`, the cytotoxicity at 70.5 h was 19.3%.

As for `CCN(CC)S(=O)(=O)c1ccc(CCC(=O)NCc2cc(C)on2)cc1`, the cytotoxicity at 70.5 h is -7.82%.

For `Cc1ccsc1C(=O)NC1CCS(=O)(=O)c2ccccc21` (stereo not given), the cytotoxicity at 70.5 h was -5.17%.

With `COc1cc(CNCC(O)c2ccc(F)c(F)c2)cc2c1OCO2` (stereo not given), the cytotoxicity at 70.5 h was determined as 29.9%.

With `Cc1ccc(C(=O)Nc2ccccc2F)n1C`, the cytotoxicity at 70.5 h was -11.5%.

As to `Cc1nc(CCNC(=O)NCc2ccc(N(C)C)nc2)cs1`, the cytotoxicity at 70.5 h is -8.72%.

Take `COc1ccc(Cl)cc1NCC(=O)NCCNc1cnccn1`: the cytotoxicity at 70.5 h was -10.9%.

In the case of `Cc1cccc(OC2CCN(C(=O)NCc3cc[nH]n3)CC2)c1C`, the cytotoxicity at 70.5 h turned out to be 0.923%.

In the case of `Cc1nn(CC(O)CN2CCc3ccccc3C2)c(=O)c(C#N)c1C` (stereo not given), the cytotoxicity at 70.5 h is -19.9%.

Turning to `CCOC(=O)CCCNC(=O)CN1CCN(c2ncccn2)CC1`, the cytotoxicity at 70.5 h was -13.6%.

With `N#Cc1cccnc1N1CCN(C(=O)CCC(=O)c2cccs2)CC1`, the cytotoxicity at 70.5 h worked out at 14.6%.

As for `CCc1c(C(=O)NCC2CCS(=O)(=O)C2)cnn1-c1ccc(C)cc1` (stereo not given), the cytotoxicity at 70.5 h is -20%.

`O=C1NCCCCC1NCc1csc(-c2ccc(F)cc2)n1` (stereo not given): the cytotoxicity at 70.5 h stood at 6.14%.

Regarding `CC1CCN(CCCNS(=O)(=O)c2cccc(F)c2)CC1`, the cytotoxicity at 70.5 h is -13.7%.

Turning to `c1ccc2c(c1)SCCC2NCc1ccc(N2CCOCC2)cc1` (stereo not given), the cytotoxicity at 70.5 h was -3.16%.
